# Test results published in US20260176267A1, “PREPARATION OF IMIDAZOPYRIDINE AND IMIDAZOPYRIDAZINE DERIVATIVES AS NOVEL DIACYLGLYCERIDE O-ACYLTRANSFERASE 2 INHIBITORS” (Merck Sharp & Dohme LLC, priority 2022, published 2026).
# pIC50: −log10 of the molar value.
# Molecular target: T1, human DGAT2 (hDGAT2) (Homo sapiens, UniProt Q96PD7)
# T1 construct: made in house; host or cells: Sf-9 insect cells (baculovirus), membrane fraction
# T1 sequence (Q96PD7 1-388): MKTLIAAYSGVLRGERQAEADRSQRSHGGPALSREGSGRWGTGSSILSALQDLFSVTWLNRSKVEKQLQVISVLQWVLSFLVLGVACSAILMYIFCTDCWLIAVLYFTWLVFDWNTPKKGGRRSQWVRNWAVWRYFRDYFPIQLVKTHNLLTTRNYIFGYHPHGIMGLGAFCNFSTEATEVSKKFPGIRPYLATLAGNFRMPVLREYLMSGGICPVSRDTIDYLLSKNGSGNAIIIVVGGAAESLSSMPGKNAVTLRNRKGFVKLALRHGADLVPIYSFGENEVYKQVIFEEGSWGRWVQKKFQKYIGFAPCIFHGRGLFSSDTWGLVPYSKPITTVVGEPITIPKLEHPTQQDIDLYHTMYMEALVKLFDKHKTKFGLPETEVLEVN
# Test: DGAT2 Enzymatic Activity Assay
# Assay type: biochemical
# Conditions: membrane prep of Sf-9 cells expressing hDGAT2; 13C18-triolein product by LC/MS/MS; 25 μM diolein, 5 μM 13C oleoyl-CoA, rt
# How it was run: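 Membranes from Sf-9 cells expressing untagged human DGAT2 (baculovirus, 48 h) used as enzyme at rt. The product ^13C18-triolein is quantified by LC/MS/MS against a ^13C21-triolein internal standard. Percent inhibition is taken from high and low controls, and IC50 is derived.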
row,Compound,pIC50
1,"COc1c(C(=O)NC2(C)CS(=O)(=O)C2)nc2ccc(Oc3ncc(F)cc3OCC(F)(F)F)cn12 [Example 135, 6-[[5-fluoro-3-(2,2,2-trifluoroethoxy)-2-pyridyl]oxy]-3-methoxy-N-(3-methyl-1,1-dioxo-thietan-3-yl)imidazo[1,2-a]pyridin-1-ium-2-carboxamide;2,2,2-trifluoroacetate]",7.21
2,"CC1(NC(=O)c2nc3ccc(Oc4ncccc4OCC(F)(F)F)cn3c2C(F)(F)F)CCS(=O)(=O)CC1 [Example 136, N-(4-methyl-1,1-dioxo-thian-4-yl)-6-[[3-(2,2,2-trifluoroethoxy)-2-pyridyl]oxy]-3-(trifluoromethyl)imidazo[1,2-a]pyridine-2-carboxamide]",6.84
3,"Cc1c(C(=O)NC2(C)CCS(=O)(=O)CC2)nc2ccc(Oc3ncc(C4CC4)cc3OCC(F)(F)F)cn12 [Example 145, 6-[[5-cyclopropyl-3-(2,2,2-trifluoroethoxy)-2-pyridyl]oxy]-3-methyl-N-(4-methyl-1,1-dioxo-thian-4-yl)imidazo[1,2-a]pyridine-2-carboxamide]",6.88
4,"Cc1c(C(=O)NC2(C)CCS(=O)(=O)CC2)nc2ccc(Oc3ncc(C(C)(C)O)cc3OCC(F)(F)F)cn12 [Example 146, 6-[[5-(1-hydroxy-1-methyl-ethyl)-3-(2,2,2-trifluoroethoxy)-2-pyridyl]oxy]-3-methyl-N-(4-methyl-1,1-dioxo-thian-4-yl)imidazo[1,2-a]pyridine-2-carboxamide]",6.99
5,"Cc1c(C(=O)NC2(C)CCS(=O)(=O)CC2)nc2ccc(Oc3ncc(O)cc3OCC(F)(F)F)cn12 [Example 148, 6-[[5-hydroxy-3-(2,2,2-trifluoroethoxy)-2-pyridyl]oxy]-3-methyl-N-(4-methyl-1,1-dioxo-thian-4-yl)imidazo[1,2-a]pyridine-2-carboxamide]",7.10
6,"Cc1c(C(=O)NC2(C)CCS(=O)(=O)CC2)nc2ccc(Oc3ncc(S(C)(=O)=O)cc3OCC(F)(F)F)cn12 [Example 150, 3-methyl-N-(4-methyl-1,1-dioxo-thian-4-yl)-6-[[5-methylsulfonyl-3-(2,2,2-trifluoroethoxy)-2-pyridyl]oxy]imidazo[1,2-a]pyridine-2-carboxamide]",7.24
7,"Cc1c(C(=O)NC2(C)CCS(=O)(=O)CC2)nc2ccc(Oc3ncc(C(=O)O)cc3OCC(F)(F)F)cn12 [Example 151, 6-[3-methyl-2-[(4-methyl-1,1-dioxo-thian-4-yl)carbamoyl]imidazo[1,2-a]pyridine-6-yl]oxy-5-(2,2,2-trifluoroethoxy)pyridine-3-carboxylic acid]",< 5.00
8,"Cc1c(C(=O)NC2(C)CS(=O)(=O)C2)nc2ccc(Oc3ncc(N(C)C)cc3OCC(F)(F)F)cn12 [Example 152, 6-[5-(dimethylamino)-3-(2,2,2-trifluoroethoxy)pyridine-2-yl]oxy-3-methyl-N-(3-methyl-1,1-dioxo-thietan-3-yl)imidazo[1,2-a]pyridin-1-ium-2-carboxamide]",7.20
9,"CC(F)(F)COc1cc(Cl)cnc1Oc1ccc2nc(C(=O)NC3(C)CCS(=O)(=O)CC3)cn2n1 [Example 154, 6-[[5-Chloro-3-(2,2-difluoropropoxy)-2-pyridyl]oxy]-N-(4-methyl-1,1-dioxo-thian-4-yl)imidazo[1,2-b]pyridazine-2-carboxamide]",6.81
10,"CC1(NC(=O)c2cn3nc(Oc4ncc(F)cc4OCC4(F)CC4)ccc3n2)CCS(=O)(=O)CC1 [Example 155, 6-[[5-Fluoro-3-[(1-fluorocyclopropyl)methoxy]-2-pyridyl]oxy]-N-(4-methyl-1,1-dioxo-thian-4-yl)imidazo[1,2-b]pyridazine-2-carboxamide]",6.73
11,"CC(F)(F)COc1cc(F)cnc1Oc1ccc2nc(C(=O)NC3(C)CCS(=O)(=O)CC3)cn2n1 [Example 156, 6-[[3-(2,2-Difluoropropoxy)-5-fluoro-2-pyridyl]oxy]-N-(4-methyl-1,1-dioxo-thian-4-yl)imidazo[1,2-b]pyridazine-2-carboxamide]",6.01
12,"CC1(NC(=O)c2cn3nc(Oc4ncc(F)cc4OC4CCC4)ccc3n2)CCS(=O)(=O)CC1 [Example 158, 6-[[3-(Cyclobutoxy)-5-fluoro-2-pyridyl]oxy]-N-(4-methyl-1,1-dioxo-thian-4-yl)imidazo[1,2-b]pyridazine-2-carboxamide]",6.23
13,"CC1(NC(=O)c2cn3nc(Oc4ncc(Cl)cc4OCC(F)(F)F)ccc3n2)CCS(=O)(=O)CC1 [Example 159, 6-[[5-Chloro-3-(2,2,2-trifluoroethoxy)-2-pyridyl]oxy]-N-(4-methyl-1,1-dioxo-thian-4-yl)imidazo[1,2-b]pyridazine-2-carboxamide]",6.68

# Now those with a higher pIC50, led by results:
row,pIC50,Compound
1,7.39,"Cc1c(C(=O)NC2(C)CCS(=O)(=O)CC2)nc2ccc(Oc3ncc(C(C)(C)F)cc3OCC(F)(F)F)cn12 [Example 147, 6-[[5-(1-fluoro-1-methyl-ethyl)-3-(2,2,2-trifluoroethoxy)-2-pyridyl]oxy]-3-methyl-N-(4-methyl-1,1-dioxo-thian-4-yl)imidazo[1,2-a]pyridine-2-carboxamide]"
2,7.43,"Cc1c(Oc2ncc(Cl)cc2OCC(C)(F)F)ccc2nc(C(=O)NC3(C)CCS(=O)(=O)CC3)c(F)n12 [Example 143, 6-[[5-chloro-3-(2,2-difluoropropoxy)-2-pyridyl]oxy]-3-fluoro-5-methyl-N-(4-methyl-1,1-dioxo-thian-4-yl)imidazo[1,2-a]pyridine-2-carboxamide]"
3,7.48,"Cc1c(C(=O)NC2(C)CCS(=O)(=O)CC2)nc2ccc(Oc3ncc(C#N)cc3OCC(F)(F)F)cn12 [Example 149, 6-[[5-cyano-3-(2,2,2-trifluoroethoxy)-2-pyridyl]oxy]-3-methyl-N-(4-methyl-1,1-dioxo-thian-4-yl)imidazo[1,2-a]pyridine-2-carboxamide]"
4,7.60,"Cc1c(C(=O)NC2(C)CCS(=O)(=O)CC2)nc2cc(C#N)c(Oc3ncc(Cl)cc3OCC(F)(F)F)cn12 [Example 138, 6-[5-chloro-3-(2,2,2-trifluoroethoxy)pyridine-2-yl]oxy-7-cyano-3-methyl-N-(4-methyl-1,1-dioxo-thian-4-yl)imidazo[1,2-a]pyridine-2-carboxamide]"
5,7.74,"CC1(NC(=O)c2cn3nc(Oc4ncc(F)cc4OCC4CC4)ccc3n2)CCS(=O)(=O)CC1 [Example 157, 6-[[3-(Cyclopropylmethoxy)-5-fluoro-2-pyridyl]oxy]-N-(4-methyl-1,1-dioxo-thian-4-yl)imidazo[1,2-b]pyridazine-2-carboxamide]"
6,7.96,"CC1(NC(=O)c2nc3ccc(Oc4ncccc4OCC(F)(F)F)cn3c2CO)CCS(=O)(=O)CC1 [Example 137, 3-(hydroxymethyl)-N-(4-methyl-1,1-dioxo-thian-4-yl)-6-[3-(2,2,2-trifluoroethoxy)pyridine-2-yl]oxy-imidazo[1,2-a]pyridine-2-carboxamide]"
7,8.05,"Cc1cnc(Oc2ccc3nc(C(=O)NC4(C)CCS(=O)(=O)CC4)c(C)n3c2)c(OCC(F)(F)F)c1 [Example 144, 3-methyl-N-(4-methyl-1,1-dioxo-thian-4-yl)-6-[[5-methyl-3-(2,2,2-trifluoroethoxy)-2-pyridyl]oxy]imidazo[1,2-a]pyridine-2-carboxamide]"
8,8.41,"CC1(NC(=O)c2cn3nc(Oc4ncc(F)cc4OCC(F)F)ccc3n2)CCS(=O)(=O)CC1 [Example 160, 6-[[3-(2,2-Difluoroethoxy)-5-fluoro-2-pyridyl]oxy]-N-(4-methyl-1,1-dioxo-thian-4-yl)imidazo[1,2-b]pyridazine-2-carboxamide]"
9,8.46,"Cc1c(Oc2ncc(Cl)cc2OCC(F)(F)F)ccc2nc(C(=O)NC3(C)CCS(=O)(=O)CC3)c(F)n12 [Example 142, 6-[[5-chloro-3-(2,2,2-trifluoroethoxy)-2-pyridyl]oxy]-3-fluoro-5-methyl-N-(4-methyl-1,1-dioxo-thian-4-yl)imidazo[1,2-a]pyridine-2-carboxamide]"
10,8.49,"CC1(NC(=O)c2cn3nc(Oc4ncc(Cl)cc4OCC(F)F)ccc3n2)CCS(=O)(=O)CC1 [Example 153, 6-((5-Chloro-3-(2,2-difluoroethoxy)pyridin-2-yl)oxy)-N-(4-methyl-1,1-dioxidotetrahydro-2H-thiopyran-4-yl)imidazo[1,2-b]pyridazine-2-carboxamide]"
11,8.59,"Cc1c(Oc2ncc(Cl)cc2OCC(F)(F)F)ccc2nc(C(=O)NC3(C)CCS(=O)(=O)CC3)c(Cl)n12 [Example 141, 3-chloro-6-[[5-chloro-3-(2,2,2-trifluoroethoxy)-2-pyridyl]oxy]-5-methyl-N-(4-methyl-1,1-dioxo-thian-4-yl)imidazo[1,2-a]pyridine-2-carboxamide]"
12,8.68,"CC1(NC(=O)c2nc3ccc(Oc4ncc(F)cc4OCC(F)(F)F)c(Cl)n3c2Cl)CS(=O)(=O)C1 [Example 140, 3,5-dichloro-6-[[5-fluoro-3-(2,2,2-trifluoroethoxy)-2-pyridyl]oxy]-N-(3-methyl-1,1-dioxo-thietan-3-yl)imidazo[1,2-a]pyridine-2-carboxamide]"
13,9.15,"CC1(NC(=O)c2nc3ccc(Oc4ncc(F)cc4OCC(F)(F)F)c(Cl)n3c2Cl)CCS(=O)(=O)CC1 [Example 139, 3,5-dichloro-6-[[5-fluoro-3-(2,2,2-trifluoroethoxy)-2-pyridyl]oxy]-N-(4-methyl-1,1-dioxo-thian-4-yl)imidazo[1,2-a]pyridine-2-carboxamide]"
